Measurements reported in ChEMBL document CHEMBL1201862, “PubChem BioAssay data set” (2004).
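Compound exposure: 48 hours, 5 concentrations, 96-well plates. At the GI50, growth is halved.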 The source made the active and inactive calls. Rule as the data show it: active = GI50 up to about 1.1 µM and inactive = higher.

Tests used:
Test in all cases: NCI anticancer screen, dose series, 48 h
KM12 = tested on: KM12
OVCAR-8 = tested on: OVCAR-8
MCF7 = tested on: MCF7
DU-145 = tested on: DU-145
NCI-H460 = tested on: NCI-H460
ACHN = tested on: ACHN
NCI-H522 = tested on: NCI-H522
SR = tested on: SR
EKVX = tested on: EKVX
HCT-15 = tested on: HCT-15
NCI-H226 = tested on: NCI-H226
UO-31 = tested on: UO-31
Hs-578T = tested on: Hs-578T
SF-539 = tested on: SF-539
MOLT-4 = tested on: MOLT-4
NCI/ADR-RES = tested on: NCI/ADR-RES
A498 = tested on: A498
SK-OV-3 = tested on: SK-OV-3
M14 = tested on: M14
OVCAR-4 = tested on: OVCAR-4
786-0 = tested on: 786-0
MDA-MB-231 = tested on: MDA-MB-231
SK-MEL-2 = tested on: SK-MEL-2
SK-MEL-5 = tested on: SK-MEL-5
U-251 = tested on: U-251
SN12C = tested on: SN12C
CCRF-CEM = tested on: CCRF-CEM
HL-60 = tested on: HL-60
A549 = tested on: A549
UACC-62 = tested on: UACC-62
SK-MEL-28 = tested on: SK-MEL-28
COLO 205 = tested on: COLO 205
HCC 2998 = tested on: HCC 2998
RXF 393 = tested on: RXF 393
SF-295 = tested on: SF-295
TK-10 = tested on: TK-10
MDA-MB-435 = tested on: MDA-MB-435
IGROV-1 = tested on: IGROV-1
CAKI-1 = tested on: CAKI-1
HOP-62 = tested on: HOP-62
Malme-3M = tested on: Malme-3M
OVCAR-5 = tested on: OVCAR-5
HOP-92 = tested on: HOP-92
SNB-75 = tested on: SNB-75
T47D = tested on: T47D
UACC-257 = tested on: UACC-257
SNB-19 = tested on: SNB-19
HCT-116 = tested on: HCT-116
RPMI-8226 = tested on: RPMI-8226
NCI-H23 = tested on: NCI-H23
SW-620 = tested on: SW-620
HT-29 = tested on: HT-29
MDA-N = tested on: MDA-N
SF-268 = tested on: SF-268
PC-3 = tested on: PC-3
K562 = tested on: K562

Measured: GI50

C=CCOC(=O)N1c2ccc(O)cc2[C@@]23O[C@@]24[C@@H]1C#C/C=C\C#C[C@]3(O)C(OC)(OC)C[C@@H]4C
44.2 µM: HCT-15
inactive: KM12 24.9 µM | OVCAR-8 32.5 µM | MCF7 35 µM | DU-145 46.6 µM | NCI-H460 24.4 µM | ACHN 17.7 µM | NCI-H522 31.3 µM | SR 24.2 µM | EKVX 53.2 µM | NCI-H226 24.9 µM | UO-31 37.2 µM | Hs-578T 37.8 µM | SF-539 21.6 µM | MOLT-4 16.3 µM | NCI/ADR-RES 32.3 µM | A498 25.5 µM | SK-OV-3 61 µM | M14 23.8 µM | 786-0 22.2 µM | MDA-MB-231 23.6 µM | SK-MEL-2 24.2 µM | SK-MEL-5 13.8 µM | U-251 33.5 µM | SN12C 23.8 µM | CCRF-CEM 23.6 µM | HL-60 32.8 µM | A549 50.5 µM | UACC-62 33.7 µM | SK-MEL-28 45.1 µM | COLO 205 19.1 µM | HCC 2998 63.1 µM | RXF 393 41.7 µM | SF-295 36.9 µM | TK-10 29.9 µM | MDA-MB-435 15.1 µM | IGROV-1 25.8 µM | CAKI-1 53.6 µM | HOP-62 34.6 µM | Malme-3M 26.8 µM | OVCAR-5 75.9 µM | HOP-92 16.4 µM | SNB-75 12.1 µM | T47D > 100 µM | UACC-257 19.1 µM | SNB-19 58.2 µM | HCT-116 35.2 µM | RPMI-8226 34.4 µM | NCI-H23 24.4 µM | SW-620 52.2 µM | HT-29 21.7 µM | MDA-N 28.8 µM | SF-268 36.5 µM | PC-3 24 µM | K562 34.8 µM
active: OVCAR-4 0.258 µM
